The text below walks through data of ChEMBL document CHEMBL3112417, “Design, synthesis, radiolabeling and in vivo evaluation of potential positron emission tomography (PET) radioligands for brain imaging of the 5-HT₇ receptor” (Bioorg Med Chem, 2014).

The test system of the first data set is Sus scrofa. Kind of data set: Ratio of drug uptake in Danish Landrace pig brain at 432 +/- 102 MBq, iv in presence of cyclosporine A to drug uptake in Danish Landrace pig brain at 432 +/- 102 MBq, iv after 90 mins. Conditions: in vivo; call rule not given here.
On to `[11CH3]Oc1ccc(-c2ccccc2N2CCN(CCCCCC(=O)NCc3ccncc3)CC2)cc1`, for which the Ratio is on record as 3.

Test system in the next data set: not listed separately
Kind of data set: Efflux ratio of permeability from basolateral to apical side over apical to basolateral side in human Caco2 cells at 10 to 100 uM after 30 to 120 mins. Type of data set: ADME, cell-based. The note with it: Caco-2.
For orientation: efflux ratio means a quotient of directional permeabilities that is used to spot active efflux. Take `COc1ccc(-c2ccccc2N2CCN(CCCCCC(=O)NCc3ccncc3)CC2)cc1`: the efflux ratio at up to 100 µM was found to be 3.33.

As for `COc1ccc(-c2ccccc2N2CCN(CCOCCC(=O)NCc3ccncc3)CC2)cc1`, the efflux ratio at up to 100 µM was 4.48.

A further data set deals with T1, Adrenergic receptor alpha-1 (Rattus norvegicus, UniProt P15823+P23944+P43140).
T1 sequence (P15823 whole entry): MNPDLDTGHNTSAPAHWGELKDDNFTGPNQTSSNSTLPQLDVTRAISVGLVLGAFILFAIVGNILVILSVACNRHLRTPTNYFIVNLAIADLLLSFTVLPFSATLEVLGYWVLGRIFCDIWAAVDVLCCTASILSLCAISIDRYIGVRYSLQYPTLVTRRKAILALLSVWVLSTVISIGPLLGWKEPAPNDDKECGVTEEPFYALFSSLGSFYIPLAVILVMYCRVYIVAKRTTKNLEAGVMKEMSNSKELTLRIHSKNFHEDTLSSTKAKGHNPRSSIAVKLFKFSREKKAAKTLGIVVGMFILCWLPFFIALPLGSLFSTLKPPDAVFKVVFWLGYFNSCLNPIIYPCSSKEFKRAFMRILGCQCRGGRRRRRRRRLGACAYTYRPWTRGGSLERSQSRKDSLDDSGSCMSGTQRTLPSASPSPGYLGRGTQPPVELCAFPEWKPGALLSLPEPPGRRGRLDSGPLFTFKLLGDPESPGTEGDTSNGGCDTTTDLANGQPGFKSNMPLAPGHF
T1 sequence (P23944 whole entry): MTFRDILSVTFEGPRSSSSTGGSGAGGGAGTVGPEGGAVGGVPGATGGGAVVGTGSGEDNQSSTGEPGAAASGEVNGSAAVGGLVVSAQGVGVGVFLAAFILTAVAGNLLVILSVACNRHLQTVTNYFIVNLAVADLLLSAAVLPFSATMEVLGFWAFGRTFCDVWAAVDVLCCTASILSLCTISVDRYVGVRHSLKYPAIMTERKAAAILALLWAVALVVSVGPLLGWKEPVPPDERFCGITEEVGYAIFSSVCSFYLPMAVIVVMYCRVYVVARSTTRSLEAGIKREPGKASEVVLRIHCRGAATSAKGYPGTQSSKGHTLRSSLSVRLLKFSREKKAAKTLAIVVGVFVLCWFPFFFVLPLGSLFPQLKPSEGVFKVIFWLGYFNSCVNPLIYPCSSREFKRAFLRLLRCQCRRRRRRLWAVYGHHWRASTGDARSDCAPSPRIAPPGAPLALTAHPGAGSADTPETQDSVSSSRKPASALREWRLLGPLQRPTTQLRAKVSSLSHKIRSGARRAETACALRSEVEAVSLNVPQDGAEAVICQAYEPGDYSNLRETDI
T1 sequence (P43140 whole entry): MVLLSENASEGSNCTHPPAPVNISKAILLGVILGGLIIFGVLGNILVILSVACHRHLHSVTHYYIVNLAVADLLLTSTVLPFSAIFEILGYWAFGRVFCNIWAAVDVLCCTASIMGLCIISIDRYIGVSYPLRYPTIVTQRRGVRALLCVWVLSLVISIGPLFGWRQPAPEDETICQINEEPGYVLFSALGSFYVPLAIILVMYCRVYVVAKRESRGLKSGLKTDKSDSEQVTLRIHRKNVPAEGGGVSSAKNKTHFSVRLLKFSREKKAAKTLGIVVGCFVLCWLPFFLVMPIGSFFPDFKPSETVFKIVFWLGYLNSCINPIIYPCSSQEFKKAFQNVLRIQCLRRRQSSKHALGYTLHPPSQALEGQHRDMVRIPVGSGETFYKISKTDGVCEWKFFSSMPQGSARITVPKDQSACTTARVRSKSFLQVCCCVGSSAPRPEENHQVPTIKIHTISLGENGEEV
The data set is described as follows: Displacement of [3H]-prazosin from rat brain alpha1 adrenergic receptor after 50 mins.
Settings: not given
One may read the Ki as the dissociation constant of the complex between target and ligand, obtained from inhibition or displacement. The low end stands for higher affinity, the high end for lower affinity. Regarding `COc1ccc(CNC(=O)CCCCCN2CCN(c3ncccc3-c3ccncc3)CC2)cc1`, the Ki is listed as 816 nM.

Take `COc1ccc(-c2ccccc2N2CCN(CCCCCC(=O)NCc3ccc(F)nc3)CC2)cc1`: the Ki is 13.3 nM. Compared with the last molecule, the Ki is about 61-fold lower.

In the case of `COc1ccc(CNC(=O)CCOCCN2CCN(c3ccccc3-c3ccc(F)cc3)CC2)cc1`, the Ki worked out at 156 nM.

`O=C(CCOCCN1CCN(c2ccccc2-c2ccc(F)cc2)CC1)NCc1ccc(F)nc1` registered a Ki of 51.3 nM.

For `COc1ccc(CNC(=O)CCCCCN2CCN(c3cccnc3-c3ccncc3)CC2)cc1`, the inhibition constant Ki is reported as over 1000 nM.

`O=C(CCCCCN1CCN(c2cccnc2-c2ccncc2)CC1)NCc1ccc(F)nc1`: the Ki is 414 nM.

Consider `O=C(CCCCCN1CCN(c2ncccc2-c2ccncc2)CC1)NCc1ccc(F)nc1`, for which the Ki was 255 nM.

The molecule `COc1ccc(CNC(=O)CCOCCN2CCN(c3cccc(-c4ccccc4OC)c3)CC2)cc1` returned a Ki of over 1000 nM.

The molecule `COc1ccccc1-c1cccc(N2CCN(CCOCCC(=O)NCc3ccc(F)nc3)CC2)c1` yielded a Ki of over 1000 nM.

`COc1ccc(CNC(=O)CCOCCN2CCN(c3ccccc3-c3ccccc3C)CC2)cc1` showed a Ki of 162 nM. In other words, the sub-micromolar range.

`Cc1ccccc1-c1ccccc1N1CCN(CCOCCC(=O)NCc2ccc(F)nc2)CC1` displayed a Ki of 365 nM.

For `COc1ccc(-c2ccccc2N2CCN(CCOCCC(=O)NCc3ccc(F)nc3)CC2)cc1`, the inhibition constant Ki was 386 nM.

Test system in a further data set: not listed separately
Kind of data set: Drug metabolism in Danish Landrace pig plasma assessed as compound remaining at 432 +/- 102 MBq, iv after 5 mins. The note with it: read-out: Stability. Type of data set: ADME, organism-based, Sus scrofa.
`[11CH3]Oc1ccc(-c2ccccc2N2CCN(CCOCCC(=O)NCc3ccncc3)CC2)cc1`: the remaining at 5 min is 30%.

Test system in another data set: not listed separately
The data set is described as follows: Drug uptake in Danish Landrace pig brain at 432 +/- 102 MBq, iv after 90 mins by PET imaging analysis. The class given is ADME, organism-based, Sus scrofa. The note with it: in vivo.
For `[11CH3]Oc1ccc(-c2ccccc2N2CCN(CCCCCC(=O)NCc3ccncc3)CC2)cc1`, the Drug uptake result is “Active”.

A further data set addresses T2, 5-hydroxytryptamine receptor 1A (Homo sapiens, UniProt P08908).
T2 sequence (P08908 whole entry): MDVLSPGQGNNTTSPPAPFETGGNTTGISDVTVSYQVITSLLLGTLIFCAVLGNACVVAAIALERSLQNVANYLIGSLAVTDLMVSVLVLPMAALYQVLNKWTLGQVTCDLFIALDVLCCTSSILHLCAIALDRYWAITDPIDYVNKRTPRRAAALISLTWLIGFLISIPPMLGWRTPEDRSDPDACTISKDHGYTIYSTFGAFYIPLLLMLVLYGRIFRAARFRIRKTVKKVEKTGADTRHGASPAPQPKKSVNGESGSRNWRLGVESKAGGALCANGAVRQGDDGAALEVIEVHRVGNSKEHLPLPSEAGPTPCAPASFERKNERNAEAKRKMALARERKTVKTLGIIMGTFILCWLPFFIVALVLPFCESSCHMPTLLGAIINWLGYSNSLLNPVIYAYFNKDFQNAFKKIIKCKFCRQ
The data set is described as follows: Displacement of [3H]8-OH-DPAT from human 5HT1A receptor transfected in HEK293-EBNA cells after 120 mins.
Settings: not given
The class given is cell-based. On the technique in general: Loss of bound radioactivity is the signal in a displacement assay; it reports binding, not function.
`COc1ccc(CNC(=O)CCCCCN2CCN(c3ncccc3-c3ccncc3)CC2)cc1` yielded a Ki of 614 nM.

In the case of `COc1ccc(CNC(=O)CCOCCN2CCN(c3ccccc3-c3ccc(F)cc3)CC2)cc1`, affinity was put at a Ki of 272 nM.

As to `O=C(CCOCCN1CCN(c2ccccc2-c2ccc(F)cc2)CC1)NCc1ccc(F)nc1`, the affinity corresponds to a Ki of 433 nM.

Regarding `COc1ccc(CNC(=O)CCCCCN2CCN(c3cccnc3-c3ccncc3)CC2)cc1`, the Ki came to 537 nM.

On to `O=C(CCCCCN1CCN(c2cccnc2-c2ccncc2)CC1)NCc1ccc(F)nc1`, for which the Ki was determined as 961 nM. Compared with the last molecule, the Ki is about 1.8-fold higher.

In turn, `O=C(CCCCCN1CCN(c2ncccc2-c2ccncc2)CC1)NCc1ccc(F)nc1` gave a Ki of 203 nM.

The molecule `COc1ccc(CNC(=O)CCOCCN2CCN(c3cccc(-c4ccccc4OC)c3)CC2)cc1` showed a Ki of 186 nM.

With `COc1ccccc1-c1cccc(N2CCN(CCOCCC(=O)NCc3ccc(F)nc3)CC2)c1`, affinity was put at a Ki of 387 nM.

The molecule `COc1ccc(CNC(=O)CCOCCN2CCN(c3ccccc3-c3ccccc3C)CC2)cc1` returned a Ki of 743 nM. This Ki lies about 1.9-fold higher than the previous one.

As to `Cc1ccccc1-c1ccccc1N1CCN(CCOCCC(=O)NCc2ccc(F)nc2)CC1`, the affinity, expressed as Ki, was 875 nM. The Ki values of the last two molecules are within 1.5-fold of each other.

For `COc1ccc(-c2ccccc2N2CCN(CCOCCC(=O)NCc3ccc(F)nc3)CC2)cc1`, the Ki was 568 nM.

For a further data set, the target named is T3, 5-hydroxytryptamine receptor 7 (Homo sapiens, UniProt P34969). Kind of data set: Displacement of [3H]5-CT from human 5HT7 receptor transfected in HEK293 cells after 60 mins. Type of data set: cell-based.
T3 sequence (P34969 whole entry): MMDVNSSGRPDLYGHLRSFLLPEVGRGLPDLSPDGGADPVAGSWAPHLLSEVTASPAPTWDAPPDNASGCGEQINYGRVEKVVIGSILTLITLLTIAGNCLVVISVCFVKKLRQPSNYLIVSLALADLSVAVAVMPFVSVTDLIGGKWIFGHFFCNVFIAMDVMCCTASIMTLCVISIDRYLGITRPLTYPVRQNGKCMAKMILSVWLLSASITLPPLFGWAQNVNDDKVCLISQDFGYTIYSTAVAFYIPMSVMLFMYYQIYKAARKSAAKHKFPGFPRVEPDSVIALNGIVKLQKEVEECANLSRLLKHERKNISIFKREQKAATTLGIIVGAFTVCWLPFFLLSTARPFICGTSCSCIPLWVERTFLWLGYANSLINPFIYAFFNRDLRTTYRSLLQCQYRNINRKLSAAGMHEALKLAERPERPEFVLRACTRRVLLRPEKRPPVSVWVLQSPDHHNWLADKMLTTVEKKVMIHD
Settings: not given
`COc1ccc(CNC(=O)CCCCCN2CCN(c3ncccc3-c3ccncc3)CC2)cc1` gave a Ki of 26.1 nM. In other words, the double-digit nanomolar range.

`COc1ccc(CNC(=O)CCOCCN2CCN(c3ccccc3-c3ccc(F)cc3)CC2)cc1` had a Ki of 45.2 nM.

Turning to `O=C(CCOCCN1CCN(c2ccccc2-c2ccc(F)cc2)CC1)NCc1ccc(F)nc1`, the inhibition constant (Ki) is 15.9 nM. This Ki lies about 2.8-fold lower than the previous one.

`COc1ccc(CNC(=O)CCCCCN2CCN(c3cccnc3-c3ccncc3)CC2)cc1` came in with a Ki of 64.2 nM.

`O=C(CCCCCN1CCN(c2cccnc2-c2ccncc2)CC1)NCc1ccc(F)nc1` yielded a Ki of 66.7 nM.

`O=C(CCCCCN1CCN(c2ncccc2-c2ccncc2)CC1)NCc1ccc(F)nc1` gave a Ki of 71 nM.

`COc1ccc(CNC(=O)CCOCCN2CCN(c3cccc(-c4ccccc4OC)c3)CC2)cc1` came in with an inhibition constant Ki of over 1000 nM.

`COc1ccccc1-c1cccc(N2CCN(CCOCCC(=O)NCc3ccc(F)nc3)CC2)c1` came in with a Ki of over 1000 nM.

`COc1ccc(CNC(=O)CCOCCN2CCN(c3ccccc3-c3ccccc3C)CC2)cc1` gave a Ki of 33.4 nM.

The molecule `Cc1ccccc1-c1ccccc1N1CCN(CCOCCC(=O)NCc2ccc(F)nc2)CC1` yielded an inhibition constant (Ki) of 12.8 nM. Compared with the last molecule, the Ki is about 2.6-fold lower.

`COc1ccc(-c2ccccc2N2CCN(CCOCCC(=O)NCc3ccc(F)nc3)CC2)cc1`: the Ki worked out at 34.5 nM.

Test system in the next data set: not listed separately
Kind of data set: Drug metabolism in rat liver S9 fraction assessed as compound remaining at 10 uM after 30 mins by RP-HPLC analysis. The class given is ADME, subcellular. The note with it: read-out: Stability.
`COc1ccc(-c2ccccc2N2CCN(CCCCCC(=O)NCc3ccncc3)CC2)cc1`: the remaining at 0.5 h, 10 µM was found to be 76%.

Consider `COc1ccc(-c2ccccc2N2CCN(CCOCCC(=O)NCc3ccncc3)CC2)cc1`, for which the remaining at 0.5 h, 10 µM is 82%.

Another data set concerns the target T3, 5-hydroxytryptamine receptor 7. The data set is described as follows: Displacement of [3H]5-CT from human 5HT7 receptor transfected in HEK293 cells after 60 mins by Scatchard plot analysis. The class given is cell-based.
Settings: not given
A word on the Kd: it is the constant that tells how readily two partners part at equilibrium. In the case of `COc1ccc(-c2ccccc2N2CCN(CCCCCC(=O)NCc3ccncc3)CC2)cc1`, the Bmax was found to be 2.7 pmol/mg and the Kd was found to be 1.17 nM.

Test system in the next data set: not listed separately
The data set is described as follows: Drug uptake in Danish Landrace pig brain at 432 +/- 102 MBq, iv administered 90 mins prior to cyclosporine A challenge measured after 30 mins by PET imaging analysis. Type of data set: ADME, organism-based, Sus scrofa. Conditions: in vivo, 0.5 h.
Regarding `[11CH3]Oc1ccc(-c2ccccc2N2CCN(CCCCCC(=O)NCc3ccncc3)CC2)cc1`, the Drug uptake result is “Active”.

Test system in a further data set: not listed separately
The data set is described as follows: Drug uptake in Danish Landrace pig brain at 52 to 300 MBq, iv after 90 mins by PET imaging analysis. Conditions: in vivo. The class given is ADME, organism-based, Sus scrofa.
Consider `[11CH3]Oc1ccc(-c2ccccc2N2CCN(CCOCCC(=O)NCc3ccncc3)CC2)cc1`, for which the Drug uptake result is “Active”.

Test system in a further data set: not listed separately
The data set is described as follows: Drug uptake in Danish Landrace pig brain at 52 to 300 MBq, iv administered 90 mins prior to cyclosporine A challenge measured after 30 mins by PET imaging analysis. Type of data set: ADME, organism-based, Sus scrofa. Conditions: in vivo, 0.5 h.
Regarding `[11CH3]Oc1ccc(-c2ccccc2N2CCN(CCOCCC(=O)NCc3ccncc3)CC2)cc1`, the Drug uptake entry is reported as “Active”.
